Values joined by “and” are separate entries in the source; they are usually repeats but may differ in a detail not shown here. Equal entries are not always repeated.
Tested on: bronchial epithelium
Assay: Binding (adsorption) of 14C-labelled DPPC to bronchial epithelium sections, liquid scintillation counting
Set-up: species or system porcine
Procedure: • L-α-Phosphatidylcholine, 1,2-di[1-^14 C]palmitoyl in Toluene:Ethanol (1:1 v/v), 114 mCi/mmol, 50 μCi in 2 mL (CFA6O4 B36, Amersham) • L-α-Phosphatidylcholine, dipalmitoyl (C16:0) (P-6267, Sigma) • DL-α-Phosphatidyl-DL-glycerol, dipalmitoyl (C16:0) (P-5650, Sigma) • Egg Phosphatidylglycerol (Batch 24756, Macfarlan Smith, Ltd.) • Sodium Chloride, 0.9%, B.P. (Baxter Healthcare) • Calcium Chloride (C-4901, Sigma) • Toluene (T-4428, Sigma) • Ethanol, AnalaR (10107.7Y, BDH) • NCS-II Tissue Solubilizer, 0.5N Solution (NNCS-502), Amersham) • OCS Organic Counting Scintillant (NOCS104, Amersham) In preparation for the dispersions in which the epithelium would be incubated, stock solutions of the phospholipid components were prepared on the first day of Run 1. These solutions were as follows: • L-α-DPPC, 2.4 mg. mL^−1 in toluene:ethanol, 1:1 • DL-α-DPPG, 3.0 mg. mL^−1 in toluene:ethanol, 1:1 • Egg PG, 3.0 mg. mL^−1 in toluene:ethanol, 1:1 All of the above solutions were stored at 4° C. in glass vials, the threads of which were sealed with teflon tape to minimise evaporation of the solvent. Each glass vial was then placed inside a second, tightly capped glass vial. These solutions were used for each of the five runs in the trial. A solution of 200 mg. L^−1 CaCl^2 in 0.9% saline was also prepared on the first day of Run 2 and was used in each of Runs 2 to 5. […]
Four dispersions were prepared on the first day of each run. […] In addition, Group 2 received 5.5 μL (16.5 μg) DL-α-DPPG, while the same quantity of egg PG was added to Group 3. […] When the number of sections was increased, the volumes of all components were increased accordingly, keeping all quantities in the same proportions as above. […]

| Compound | binding of DPPC to bronchial epithelium (in words) (DPPC in the presence of the named phosphatidyl glycerol, 1:1, compared with DPPC only) | Total DPPC Adsorbed to Bronchial Epithelium (individual sections, incubation at 37° C. for 24 h in 0.9% saline dispersion, rinsed 20 times) | Total DPPC Adsorbed to Bronchial Epithelium, Mean (mean of n 10 sections, incubation at 37° C. for 24 h in 0.9% saline dispersion, rinsed 20 times) [μg/cm^2] |
| --- | --- | --- | --- |
| CCCCCCCCCCCCCCCC(=O)OCC(COP(=O)(O)OCC(O)CO)OC(=O)CCCCCCCCCCCCCCC (racemic) [DPPG, DL-α-Phosphatidyl-DL-glycerol, dipalmitoyl (C16:0)] | increased binding of DPPC to bronchial epithelium | – | – |
| CCCCCCCCCCCCCCCC(=O)OC[C@H](COP(=O)([O-])OCC[N+](C)(C)C)OC(=O)CCCCCCCCCCCCCCC [DPPC, dipalmitoyl phosphatidyl choline] | – | 0.280 μg/cm^2 and 0.528 μg/cm^2 and 0.192 μg/cm^2 and 0.340 μg/cm^2 and 0.321 μg/cm^2 and 0.341 μg/cm^2 and 0.299 μg/cm^2 and 0.219 μg/cm^2 and 0.116 μg/cm^2 and 0.276 μg/cm^2 | 0.291 |

— US7273604B2, “Anti-asthmatic combinations comprising surface active phospholipids” (Britannia Pharmaceuticals Limited, priority 1998, dated 2007)
